Our source for the IC50 values is patent US8901118B2, “Compounds and methods for kinase modulation, and indications therefor” (Plexxikon Inc., priority 2010, dated 2014).

SMILES strings stand for the structures. Where only a bound is given, the exact number is not on record here.

This assay has as its target T1, CYP1A2 (Homo sapiens, UniProt P05177).
T1 sequence (P05177 1-516): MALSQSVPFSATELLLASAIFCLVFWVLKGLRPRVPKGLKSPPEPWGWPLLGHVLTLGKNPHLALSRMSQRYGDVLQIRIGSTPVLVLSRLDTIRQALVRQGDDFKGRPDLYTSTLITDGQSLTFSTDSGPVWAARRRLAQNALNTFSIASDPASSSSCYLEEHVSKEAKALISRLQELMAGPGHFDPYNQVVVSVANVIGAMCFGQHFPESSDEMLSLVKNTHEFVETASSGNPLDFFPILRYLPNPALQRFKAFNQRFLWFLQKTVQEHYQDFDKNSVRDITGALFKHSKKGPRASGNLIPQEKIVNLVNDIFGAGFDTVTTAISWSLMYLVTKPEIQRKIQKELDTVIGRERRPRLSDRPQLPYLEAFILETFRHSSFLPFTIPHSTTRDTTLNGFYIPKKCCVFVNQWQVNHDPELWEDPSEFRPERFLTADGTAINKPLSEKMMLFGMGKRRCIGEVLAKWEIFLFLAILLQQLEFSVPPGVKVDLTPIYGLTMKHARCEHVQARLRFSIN
Put plainly: CYP1A2 inhibition (fluorescent substrate CEC). In kind it is in vitro ADME. The following applies: read-out: Cyp IC50 1A2. The protocol:
CYP (Cytochrome P450) enzymes are the major drug metabolizing enzymes present in the liver. The inhibition of CYP enzyme activity (IC50) for each of CYP1A2, CYP2C19, CYP2C9, CYP2D6, CYP3A4(BFC) and CYP3A4(BQ) is determined for compounds, where inhibition of metabolism of a known substrate leads to a decrease in the fluorescence of the metabolized product. The fluorescence of the product is monitored as a function of compound concentration. Compounds are dissolved in DMSO to a concentration of 100 mM. These are diluted 1 μL into 82 μL of acetonitrile. An 11 μL aliquot of this solution is then added to 204 μL of cofactor mix (1.3% NADPH Regeneration system Solution A, 1.04% NADPH Regeneration system Solution B from BD Biosciences, 5% acetonitrile and 0.05% DMSO). These are then serially diluted 1:1 (160 μL to 160 μL co-factor mix) for a total of 10 points. A 10 μL aliquot of this final mixture is dispensed into 384 well assay plates and incubated for 10 minutes at 37° C. […] Assay plates are incubated at 37° C. (CYP1A2-15 min; CYP2C9-45 min; CYP2C19, 2D6 and 3A4-30 min) and read in a Tecan Safire 2 plate reader (CYP1A2, 2C19 and 3A4 409 ex/460 em; CYP2C9 and 2D6 409 ex/530 em). The signal versus compound concentration is used to determine the IC50. The enzymes and substrates for this assay are obtained from BD Biosciences.
One may read the IC50 as the concentration that inhibits the measured activity by half. Consider `CC1CCC(Nc2ncc(Cc3c[nH]c4ncc(Cl)cc34)cn2)CC1` (centres unmarked) [Compound P-3009, [5-(5-Chloro-1H-pyrrolo[2,3-b]pyridin-3-ylmethyl)-pyrimidin-2-yl]-(4-methyl-cyclohexyl)-amine], for which the IC50 is more than 10 µM.
For the compound `Cc1cnc2[nH]cc(Cc3cnc(Nc4ccc(F)cc4)nc3)c2c1` [Compound P-3010, (4-Fluoro-phenyl)-[5-(5-methyl-1H-pyrrolo[2,3-b]pyridin-3-ylmethyl)-pyrimidin-2-yl]-amine], the IC50 is more than 10 µM.
Then `Clc1ccc(Nc2ncc(Cc3c[nH]c4ncc(Cl)cc34)cn2)cc1` [Compound P-3011, (4-Chloro-phenyl)-[5-(5-chloro-1H-pyrrolo[2,3-b]pyridin-3-ylmethyl)-pyrimidin-2-yl]-amine], with more than 10 µM.
Then `Fc1ccc(Nc2ncc(Cc3c[nH]c4ncc(Cl)cc34)cn2)cc1` [Compound P-3012, [5-(5-Chloro-1H-pyrrolo[2,3-b]pyridin-3-ylmethyl)-pyrimidin-2-yl]-(4-fluoro-phenyl)-amine], with more than 10 µM; and `Fc1nc(NC2CCC(F)(F)CC2)ccc1Cc1c[nH]c2ncc(Cl)cc12` [Compound P-3013, [5-(5-Chloro-1H-pyrrolo[2,3-b]pyridin-3-ylmethyl)-6-fluoro-pyridin-2-yl]-(4,4-difluoro-cyclohexyl)-amine], with 5 to 10 µM; and `O=C(c1ccc(NC2CCC(F)(F)CC2)nc1F)c1c[nH]c2ncnc(NCC(F)(F)F)c12` [Compound P-4061, [6-[(4,4-difluorocyclohexyl)amino]-2-fluoro-3-pyridyl]-[4-(2,2,2-trifluoroethylamino)-7H-pyrrolo[2,3-d]pyrimidin-5-yl]methanone], with more than 10 µM.
Then `CCc1ccc(Nc2ccc(C(=O)c3c[nH]c4ncnc(NCC(C)(C)O)c34)c(F)n2)cn1` [Compound P-4064, [6-[(6-ethyl-3-pyridyl)amino]-2-fluoro-3-pyridyl]-[4-[(2-hydroxy-2-methyl-propyl)amino]-7H-pyrrolo[2,3-d]pyrimidin-5-yl]methanone], with more than 10 µM; and `COc1ccc(Nc2ccc(C(=O)c3c[nH]c4ncnc(NC(C)C)c34)c(F)n2)cn1` [Compound P-4066, [2-fluoro-6-[(6-methoxy-3-pyridyl)amino]-3-pyridyl]-[4-(isopropylamino)-7H-pyrrolo[2,3-d]pyrimidin-5-yl]methanone], with more than 10 µM; and `COc1ccc(Nc2ccc(C(=O)c3c[nH]c4ncnc(NCC5CC5)c34)c(F)n2)cn1` [Compound P-4067, [4-(cyclopropylmethylamino)-7H-pyrrolo[2,3-d]pyrimidin-5-yl]-[2-fluoro-6-[(6-methoxy-3-pyridyl)amino]-3-pyridyl]methanone], with more than 10 µM.
Take `CCCNc1ncnc2[nH]cc(C(=O)c3ccc(Nc4ccc(OC)nc4)nc3F)c12` [Compound P-4068, [2-fluoro-6-[(6-methoxy-3-pyridyl)amino]-3-pyridyl]-[4-(propylamino)-7H-pyrrolo[2,3-d]pyrimidin-5-yl]methanone]: the IC50 is more than 10 µM.
Then `COc1ccc(Nc2ccc(C(=O)c3c[nH]c4ncnc(N5CCCCC5)c34)c(F)n2)cn1` [Compound P-4069, [2-fluoro-6-[(6-methoxy-3-pyridyl)amino]-3-pyridyl]-[4-(1-piperidyl)-7H-pyrrolo[2,3-d]pyrimidin-5-yl]methanone], with more than 10 µM; and `COc1ccc(Nc2ccc(C(=O)c3c[nH]c4ncnc(N5CCOCC5)c34)c(F)n2)cn1` [Compound P-4070, [2-fluoro-6-[(6-methoxy-3-pyridyl)amino]-3-pyridyl]-(4-morpholino-7H-pyrrolo[2,3-d]pyrimidin-5-yl)methanone], with more than 10 µM; and `COc1ccc(Nc2ccc(C(=O)c3c[nH]c4ncnc(NCc5ccc(C(F)(F)F)nc5)c34)c(F)n2)cn1` [Compound P-4071, [2-fluoro-6-[(6-methoxy-3-pyridyl)amino]-3-pyridyl]-[4-[[6-(trifluoromethyl)-3-pyridyl]methylamino]-7H-pyrrolo[2,3-d]pyrimidin-5-yl]methanone], with more than 10 µM.
Then `COc1ccc(Nc2ccc(C(=O)c3c[nH]c4ncnc(N[C@@H](C)c5ccc(F)cc5)c34)c(F)n2)cn1` [Compound P-4072, [2-fluoro-6-[(6-methoxy-3-pyridyl)amino]-3-pyridyl]-[4-[[(1S)-1-(4-fluorophenyl)ethyl]amino]-7H-pyrrolo[2,3-d]pyrimidin-5-yl]methanone], with more than 10 µM; and `COc1ccc(Nc2ccc(C(=O)c3c[nH]c4ncnc(NCC5CCCO5)c34)c(F)n2)cn1` (centres unmarked) [Compound P-4073, [2-fluoro-6-[(6-methoxy-3-pyridyl)amino]-3-pyridyl]-[4-(tetrahydrofuran-2-ylmethylamino)-7H-pyrrolo[2,3-d]pyrimidin-5-yl]methanone], with more than 10 µM; and `CCN1CCC(Nc2ncnc3[nH]cc(C(=O)c4ccc(Nc5ccc(OC)nc5)nc4F)c23)CC1` [Compound P-4074, [4-[(1-ethyl-4-piperidyl)amino]-7H-pyrrolo[2,3-d]pyrimidin-5-yl]-[2-fluoro-6-[(6-methoxy-3-pyridyl)amino]-3-pyridyl]methanone], with more than 10 µM.
As to `COc1ccc(Nc2ccc(C(=O)c3c[nH]c4ncnc(NC5CCCC5)c34)c(F)n2)cn1` [Compound P-4075, [4-(cyclopentylamino)-7H-pyrrolo[2,3-d]pyrimidin-5-yl]-[2-fluoro-6-[(6-methoxy-3-pyridyl)amino]-3-pyridyl]methanone], the IC50 was more than 10 µM.
The figure for `COc1ccc(Nc2ccc(C(=O)c3c[nH]c4ncnc(NC5CCC5)c34)c(F)n2)cn1` [Compound P-4076, [4-(cyclobutylamino)-7H-pyrrolo[2,3-d]pyrimidin-5-yl]-[2-fluoro-6-[(6-methoxy-3-pyridyl)amino]-3-pyridyl]methanone] is more than 10 µM.
Then `CCC(CC)Nc1ncnc2[nH]cc(C(=O)c3ccc(Nc4ccc(OC)nc4)nc3F)c12` [Compound P-4077, [4-(1-ethylpropylamino)-7H-pyrrolo[2,3-d]pyrimidin-5-yl]-[2-fluoro-6-[(6-methoxy-3-pyridyl)amino]-3-pyridyl]methanone], with 5 to 10 µM; and `CCC(C)Nc1ncnc2[nH]cc(C(=O)c3ccc(Nc4ccc(OC)nc4)nc3F)c12` (centres unmarked) [Compound P-4078, [2-fluoro-6-[(6-methoxy-3-pyridyl)amino]-3-pyridyl]-[4-(sec-butylamino)-7H-pyrrolo[2,3-d]pyrimidin-5-yl]methanone], with 5 to 10 µM; and `COCCCNc1ncnc2[nH]cc(C(=O)c3ccc(Nc4ccc(OC)nc4)nc3F)c12` [Compound P-4079, [2-fluoro-6-[(6-methoxy-3-pyridyl)amino]-3-pyridyl]-[4-(3-methoxypropylamino)-7H-pyrrolo[2,3-d]pyrimidin-5-yl]methanone], with more than 10 µM.
Then `CCCCNc1ncnc2[nH]cc(C(=O)c3ccc(Nc4ccc(OC)nc4)nc3F)c12` [Compound P-4080, [4-(butylamino)-7H-pyrrolo[2,3-d]pyrimidin-5-yl]-[2-fluoro-6-[(6-methoxy-3-pyridyl)amino]-3-pyridyl]methanone], with more than 10 µM.
Consider `CCNc1ncnc2[nH]cc(C(=O)c3ccc(Nc4ccc(OC)nc4)nc3F)c12` [Compound P-4081, [4-(ethylamino)-7H-pyrrolo[2,3-d]pyrimidin-5-yl]-[2-fluoro-6-[(6-methoxy-3-pyridyl)amino]-3-pyridyl]methanone], for which the concentration for half-maximal inhibition (IC50) was more than 10 µM.
The figure for `COc1ccc(Nc2ccc(C(=O)c3c[nH]c4ncnc(NC5CCCCC5)c34)c(F)n2)cn1` [Compound P-4082, [4-(cyclohexylamino)-7H-pyrrolo[2,3-d]pyrimidin-5-yl]-[2-fluoro-6-[(6-methoxy-3-pyridyl)amino]-3-pyridyl]methanone] is more than 10 µM.
The figure for `CNc1ncnc2[nH]cc(C(=O)c3ccc(Nc4ccc(OC)nc4)nc3F)c12` [Compound P-4083, [2-fluoro-6-[(6-methoxy-3-pyridyl)amino]-3-pyridyl]-[4-(methylamino)-7H-pyrrolo[2,3-d]pyrimidin-5-yl]methanone] is more than 10 µM.
The figure for `O=C(c1ccc(NC2CCC(F)(F)CC2)nc1)c1c[nH]c2ncnc(NCC(F)(F)F)c12` [Compound P-4087, [6-[(4,4-difluorocyclohexyl)amino]-3-pyridyl]-[4-(2,2,2-trifluoroethylamino)-7H-pyrrolo[2,3-d]pyrimidin-5-yl]methanone] is more than 10 µM.
